What was measured:
[1] = target: T1, membranes from hERG-transfected HEK cells (hERG channel) (Homo sapiens, UniProt Q12809); test: Binding of the radioligand to membranes from hERG-transfected HEK cells (Kd, Bmax); details: mean±SEM, n=3
T1 construct: expressed in transfected cells; host or cells: HEK (human embryonic kidney) cells, membrane preparation
Experimental: The batch of radiolabel used in these studies has a specific activity of 2941.5 GBq/mmol (79.5 Ci/mmol) and a concentration of 20 μM. The stock radiolabel is diluted 2000-fold to 10 nM and 20 μL added per well to a final assay volume of 200 μL to give a final radioligand concentration of 1 nM.

[2] = target: T2, hERG-transfected HEK membranes (hERG channel) (Homo sapiens, UniProt Q12809)
T2 sequence (Q12809 whole entry): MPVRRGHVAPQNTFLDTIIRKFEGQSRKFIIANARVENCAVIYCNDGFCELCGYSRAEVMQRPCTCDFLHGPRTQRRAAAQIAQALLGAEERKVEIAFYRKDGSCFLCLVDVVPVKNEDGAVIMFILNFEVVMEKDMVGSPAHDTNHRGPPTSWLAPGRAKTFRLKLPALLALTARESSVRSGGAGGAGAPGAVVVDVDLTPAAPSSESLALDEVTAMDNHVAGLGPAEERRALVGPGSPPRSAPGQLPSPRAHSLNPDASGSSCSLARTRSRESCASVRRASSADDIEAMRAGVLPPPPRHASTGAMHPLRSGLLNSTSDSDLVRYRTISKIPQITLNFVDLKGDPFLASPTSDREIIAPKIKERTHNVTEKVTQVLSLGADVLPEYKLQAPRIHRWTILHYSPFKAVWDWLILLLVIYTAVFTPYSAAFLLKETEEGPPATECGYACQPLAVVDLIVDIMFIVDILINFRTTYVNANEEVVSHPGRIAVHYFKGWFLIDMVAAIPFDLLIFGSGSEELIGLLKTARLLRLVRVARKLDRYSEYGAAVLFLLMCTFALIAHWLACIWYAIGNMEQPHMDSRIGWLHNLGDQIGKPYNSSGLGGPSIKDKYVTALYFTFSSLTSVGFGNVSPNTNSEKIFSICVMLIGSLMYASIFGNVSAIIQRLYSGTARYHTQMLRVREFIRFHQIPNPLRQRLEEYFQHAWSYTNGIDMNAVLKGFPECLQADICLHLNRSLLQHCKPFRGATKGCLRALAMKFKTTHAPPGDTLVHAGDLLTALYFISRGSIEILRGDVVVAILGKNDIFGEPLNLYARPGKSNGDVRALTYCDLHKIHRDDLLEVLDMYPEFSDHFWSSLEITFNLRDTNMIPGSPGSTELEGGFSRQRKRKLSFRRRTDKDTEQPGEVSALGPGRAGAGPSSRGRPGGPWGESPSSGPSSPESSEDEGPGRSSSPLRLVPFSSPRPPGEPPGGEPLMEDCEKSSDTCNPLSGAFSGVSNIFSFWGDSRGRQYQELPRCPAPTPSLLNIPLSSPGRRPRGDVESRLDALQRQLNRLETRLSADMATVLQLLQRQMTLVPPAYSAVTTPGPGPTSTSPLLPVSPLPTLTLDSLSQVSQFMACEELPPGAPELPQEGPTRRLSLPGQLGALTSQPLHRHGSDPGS
Experimental: Protocol for HERG Binding Assay
(§1) 96-well polypropylene plates (Costar C3600)
GF/B Plate Coating Solution
0.3% (v/v) Polyethylenimine
(§2) GF/B filter plates are pre-soaked in coating solution for a minimum of 20 minutes before harvesting.
(§3) Membranes for use in the assay are prepared as follows:
(§4) The final pellet is prepared in serum-free medium and the packed cell volume (pcv) measured.
(§5) The cells are allowed to swell for a couple of minutes on ice then lysed using a Polytron tissue homogeniser set to 22,000 rpm. The cell suspension is held on ice and the Polytron is allowed to build up to speed, then turned off and allowed to cool for 30 seconds before repeating. Normally 3 bursts should be sufficient to completely lyse the cells. A sample is checked microscopically to ensure complete lysis and the process repeated if necessary.
(§6) The lysed membrane solution is carefully overlaid over the 41% cushion. Any debris that may be stuck to the sides is washed out of the Polytron tube with buffer. The ultra centrifuge tube is topped up with cold buffer to completely fill the tube (this prevents the tube from collapsing during centrifugation). Centrifugation is carried out at 28,000 rpm for 1 hour @ 4° C. using a SW-28 swing-out rotor with a brake to 800 rpm.
(§7) Membranes are seen as a white band at sucrose/buffer interphase. The top layer of the buffer is discarded and then all the membrane band is harvested with as little sucrose as possible and added to a fresh centrifuge tube. This is diluted and mixed well with at least 3 volumes of ice cold buffer containing protease inhibitor. Centrifugation is carried out at 23,000 rpm at 4° C. for 20 minutes with a break to zero.
(§8) The supernatant is discarded and the pellet resuspended in the assay buffer+protease inhibitors on ice at 1×10^8 cell equivalents/ml. This preparation is then aliquotted and frozen to −80° C. or lower. […]
(§9) 20 μL of 10 nM 3,7-Bis[2-(4-nitro[3,5-^3H]phenyl)ethyl]-3,7-diazabicyclo[3.3.1]nonane is added to a dry filter plate to determine the total radioactivity added to assay wells.

[3] = target: T2, hERG-transfected HEK membranes (hERG channel); details: published data of Finlayson et al.; cited from earlier work
[4] = system: cardiac rapidly activating delayed rectifier K^+ current; details: source of data: Chadwick 1993; G.Pig; cited from earlier work
[5] = target: T2, hERG-transfected HEK membranes (hERG channel); test: biochemical
Experimental: Protocol for HERG Binding Assay
as §1
GF/B Plate Coating Solution
0.3% (v/v) Polyethylenimine
as §2, §3, §4, §5, §6, §7, §8, §9

T1 sequence (Q12809 whole entry): as above

[3H]c1cc(CCN2CC3CC(C2)CN(CCc2cc([3H])c([N+](=O)[O-])c([3H])c2)C3)cc([3H])c1[N+](=O)[O-] [3,7-Bis[2-(4-nitro[3,5-^3H]phenyl)ethyl]-3,7-diazabicyclo[3.3.1]nonane]
Bmax [1]: 23.1±0.4 pmol/mg protein

CC(C)NC[C@@H](O)c1ccc(NS(C)(=O)=O)cc1 [d-Sotalol]
pIC50, 3,7-Bis[2-(4-nitro[3,5-^3H]phenyl)ethyl]-3,7-diazabicyclo[3.3.1]nonane competition binding [2]: 4.6
pIC50, [^3H]-Dofetlide competition binding [3]: 3.9
Electrophysiology pIC50 [4]: 4.1

O=[N+]([O-])c1ccc(CCN2CC3CC(C2)CN(CCc2ccc([N+](=O)[O-])cc2)C3)cc1 [3,7-Bis[2-(4-nitrophenyl)ethyl]-3,7-diazabicyclo[3.3.1]nonane]
IC50 [5]: 3.16 nM

O=[N+]([O-])c1ccc(CCN2CC3CC(C2)CN(CCc2ccc([N+](=O)[O-])cc2)C3)cc1 [3,7-Bis[2-(4-nitro[3,5-^3H]phenyl)ethyl]-3,7-diazabicyclo[3.3.1]nonane]
Kd [1]: 0.91 ± 0.01 nM

Reference: patent US20070048215A1, “Chemical compound and assay” (priority 2003, published 2007)
